# Data reported in patent US8377963B2, “Insulin-regulated aminopeptidase (IRAP) inhibitors and uses thereof” (Howard Florey Institute, priority 2007, dated 2013).
# Key:
# [1] = target: T1, IRAP (Homo sapiens, UniProt Q9UIQ6); assay: IRAP enzymatic assay (hydrolysis of Leu-MCA); type: biochemical; conditions: substrate Leu-MCA, solubilized membranes of HEK 293T cells transfected with IRAP
# T1 construct: expressed in transfected cells; host or cells: HEK 293T
# Method: An in vitro enzymatic assay was used to initially assess IRAP inhibitory activity.
# After solubilization, the membranes were pelleted by centrifugation at 23,100 g for 15 min at 4° C., and the supernatant was reserved as the source of IRAP activity. The enzymatic activities of IRAP were determined by the hydrolysis of the synthetic substrate Leu-MCA (Sigma-Aldrich, Missouri, USA) monitored by the release of a fluorogenic product, MCA, at excitation and emission wavelengths of 380 and 440 nm, respectively. Assays were performed in 96-well plates; each well contains between […] solubilized membrane protein, a range of concentration of substrate in a final volume of 100 μL 50 mM Tris-HCl buffer (pH 7.4). Non-specific hydrolysis of the substrate was corrected by subtracting the emission from incubations with membranes transfected with empty vector. Reactions proceeded at 37° C. for 30 min within a thermostatted FLEX station fluorescence microplate reader (Molecular Devices, Sunnyvale, Calif.). […] Km values of IRAP for Leu-MCA were determined from the kinetic studies. […] All data obtained were from at least three separate experiments performed in duplicate.
# [2] = target: Angiotensin converting enzyme 1 (Homo sapiens, UniProt P12821); assay: Angiotensin converting enzyme assay; type: biochemical; conditions: read-out: % inhibition of the catalytic activity of the enzyme
# Chain of Angiotensin converting enzyme 1 (P12821 30-1306): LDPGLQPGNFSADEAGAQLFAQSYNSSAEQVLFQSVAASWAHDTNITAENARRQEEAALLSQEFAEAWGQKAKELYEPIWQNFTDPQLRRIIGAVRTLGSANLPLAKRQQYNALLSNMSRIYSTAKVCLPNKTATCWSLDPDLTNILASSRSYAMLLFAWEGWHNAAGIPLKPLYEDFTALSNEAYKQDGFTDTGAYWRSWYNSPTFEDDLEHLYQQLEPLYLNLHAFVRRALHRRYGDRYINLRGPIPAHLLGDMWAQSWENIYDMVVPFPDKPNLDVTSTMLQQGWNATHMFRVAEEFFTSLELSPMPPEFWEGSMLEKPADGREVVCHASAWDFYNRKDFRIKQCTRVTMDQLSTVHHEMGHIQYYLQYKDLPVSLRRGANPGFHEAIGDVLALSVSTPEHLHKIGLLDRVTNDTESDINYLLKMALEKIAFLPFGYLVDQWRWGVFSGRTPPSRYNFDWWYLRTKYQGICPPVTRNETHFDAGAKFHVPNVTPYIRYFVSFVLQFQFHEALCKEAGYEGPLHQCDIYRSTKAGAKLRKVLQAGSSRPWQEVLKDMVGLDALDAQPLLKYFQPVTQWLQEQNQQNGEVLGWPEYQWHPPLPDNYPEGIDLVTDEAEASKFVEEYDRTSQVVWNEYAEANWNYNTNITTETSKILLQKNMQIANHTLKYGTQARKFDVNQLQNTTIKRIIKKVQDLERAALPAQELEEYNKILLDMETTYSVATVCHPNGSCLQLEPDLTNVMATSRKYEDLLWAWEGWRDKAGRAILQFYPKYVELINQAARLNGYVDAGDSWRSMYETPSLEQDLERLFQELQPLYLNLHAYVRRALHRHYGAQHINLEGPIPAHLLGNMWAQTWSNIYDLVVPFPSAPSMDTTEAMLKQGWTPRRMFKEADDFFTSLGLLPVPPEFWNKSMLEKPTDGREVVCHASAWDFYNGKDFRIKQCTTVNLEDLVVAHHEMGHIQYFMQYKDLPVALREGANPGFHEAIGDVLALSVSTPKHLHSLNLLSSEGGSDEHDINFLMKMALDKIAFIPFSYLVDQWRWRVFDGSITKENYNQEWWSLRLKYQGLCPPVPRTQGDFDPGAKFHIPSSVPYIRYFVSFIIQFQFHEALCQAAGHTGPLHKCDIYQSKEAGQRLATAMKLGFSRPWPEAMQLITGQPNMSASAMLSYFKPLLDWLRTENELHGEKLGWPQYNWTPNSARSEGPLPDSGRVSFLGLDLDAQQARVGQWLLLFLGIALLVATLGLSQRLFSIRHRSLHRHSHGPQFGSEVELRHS
# Method: Angiotensin converting enzyme assay. The enzyme (final concentration 0.02 pmol/100 L) was incubated with 200 μL of assay solution that included 5 mmol/L HHL in 100 mmol/L potassium buffer (pH 8.3) that contained 300 mmol/L NaCl and 10^−4 mol/L ZnSO4 for 3 hours at 37° C. The enzymatic reaction was stopped by the addition of 1.5 mL of 0.28N NaOH, 100 μL of o-phthaldialdehyde (20 mg/mL) in methanol was added and the fluorescent reaction stopped by the addition of 200 μL of 3N HCl. The product, L-His-Leu, was measured fluorometrically (360 nm excitation and 500 nm emission).
# (§1) Limited inhibition of control enzymes was observed.
# [3] = test system: rats; assay: Spontaneous alternation plus maze; type: in vivo, rat; conditions: for Spontaneous Alternation Score (%): rats, n=8/group
# Method: (§2) All experiments were performed according to the National Health and Medical Research Council of Australia “Code of practise for the care and use of animals for scientific purposes”. Male Spraque Dawley rats, (250-270 g) are housed individually and given water and standard rat chow ad libitum. On the day of surgery, the rats were anaesthetized with 5% isofluorane, placed in a stereotaxic frame and maintained on 2% isofluorane for the duration of the cannula implantation procedure. The rats were stereotaxically implanted with chronic indwelling cannula (Plastics One) into the cerebral lateral ventricles using the following flat skull coordinates 0.8 mm posterior to Bregma, 1.55 mm lateral to midline and 3.5 mm ventral to the dura. The cannula was then secured to the skull with stainless steel screws and dental cement. Seven days following surgery, proper cannula placement was verified by a bolus injection of angiotensin II (1 nmol/μl).
# The plus maze was composed of four arms with each arm measuring 75×10×20 cm. The floor and walls of the central platform and the floors of the arms were made of black plastic. Spontaneous alternation testing was conducted by placing the rat on the center platform of the maze and allowing 20 min of unimpeded exploration. The number and sequence of arm entries were recorded for calculation of a percent alternation score. An alternation consisted of 4 different arm choices of 5 consecutive arm entries. A ⅘ alternation score was computed by dividing the number of observed alternations in overlapping quintuplets by the number of possible alternations and multiplying the quotient by 100.
# [4] = target: T2, Recombinant human LTA4H (Homo sapiens, UniProt P09960); assay: Leukotriene A4 hydrolase assay; type: biochemical; conditions: 100 μM; read-out: % inhibition of the catalytic activity of the enzyme
# T2 construct: purchased Cayman Chemicals
# T2 sequence (P09960 1-611): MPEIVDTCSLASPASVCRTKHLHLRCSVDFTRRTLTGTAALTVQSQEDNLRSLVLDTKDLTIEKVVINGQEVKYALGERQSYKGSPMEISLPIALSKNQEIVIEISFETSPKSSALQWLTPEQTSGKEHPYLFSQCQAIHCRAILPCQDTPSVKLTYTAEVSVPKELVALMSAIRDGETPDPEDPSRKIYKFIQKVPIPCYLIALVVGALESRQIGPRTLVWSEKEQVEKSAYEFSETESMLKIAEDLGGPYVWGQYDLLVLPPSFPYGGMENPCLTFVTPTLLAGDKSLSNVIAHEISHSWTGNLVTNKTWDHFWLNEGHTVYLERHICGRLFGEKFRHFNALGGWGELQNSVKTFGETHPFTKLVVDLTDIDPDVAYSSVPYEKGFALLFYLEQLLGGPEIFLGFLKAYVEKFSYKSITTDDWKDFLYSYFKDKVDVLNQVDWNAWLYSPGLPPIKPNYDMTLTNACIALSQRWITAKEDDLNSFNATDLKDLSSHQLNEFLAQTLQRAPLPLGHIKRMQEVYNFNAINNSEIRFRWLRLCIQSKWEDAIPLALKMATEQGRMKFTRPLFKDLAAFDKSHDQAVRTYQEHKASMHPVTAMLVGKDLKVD
# Method: Leukotriene A4 hydrolase assay. Recombinant human LTA4H (Cayman Chemicals Michigan USA) (1-20 μg) was incubated at room temperature with alanine-p-nitroanilide as substrate in 50 mM Tris-HCl buffer, pH 8.0, containing 100 mM KCl with or without increasing concentrations of an inhibitor. The absorbance at 405 nm was measured at 10 min intervals.
# as §1
# [5] = test system: rats; assay: Locomotor cell activity; type: in vivo, rat; conditions: 30 mins; for Distance travelled (% control): rats, n=8 per group
# Method: as §2
# Locomotor activity of rats treated with 1 nmol Compound 2 intracerebrocentricularly was monitored in special cages measuring 40×40×40 cm (Coulbourn Instruments, Philadelphia, USA) equipped with harmless infrared photobeams. Activity was measured when pairs of photobeams spaced 2.54 cm apart providing a 1.27 cm spatial resolution were crossed. Data was collected and analysed using TruScan Photo Beam Activity system (Coulbourn Instruments, Philadelphia, USA). Each rat was placed in the arena for 30 min.
# [6] = test system: Glucose-6-phosphate dehydrogenase/glucose hexokinase; assay: Glucose-6-phosphate dehydrogenase and hexokinase activity, fluorimetric assay; conditions: 100 μM
# Method: Glucose-6-phosphate dehydrogenase and hexokinase activity. Glucose-6-phosphate dehydrogenase and hexokinase activity in the absence and presence of the compounds was determined in a fluorimetric assay. Ten mM Tris MgCl2 buffer (total volume of 200 ml) containing glucose-6-phosphate dehydrogenase, 0.3M ATP, 30 mM NADP+ was added to 96 well microtitre plate together with 20 μl of compound, a reading at excitation 350 nm and emission 510 nm was taken followed by the addition of hexokinase and another reading.
# [7] = 0.1 nmol intracerebroventricularly
# [8] = 1 nmol intracerebroventricularly
# T1 sequence (Q9UIQ6 whole entry): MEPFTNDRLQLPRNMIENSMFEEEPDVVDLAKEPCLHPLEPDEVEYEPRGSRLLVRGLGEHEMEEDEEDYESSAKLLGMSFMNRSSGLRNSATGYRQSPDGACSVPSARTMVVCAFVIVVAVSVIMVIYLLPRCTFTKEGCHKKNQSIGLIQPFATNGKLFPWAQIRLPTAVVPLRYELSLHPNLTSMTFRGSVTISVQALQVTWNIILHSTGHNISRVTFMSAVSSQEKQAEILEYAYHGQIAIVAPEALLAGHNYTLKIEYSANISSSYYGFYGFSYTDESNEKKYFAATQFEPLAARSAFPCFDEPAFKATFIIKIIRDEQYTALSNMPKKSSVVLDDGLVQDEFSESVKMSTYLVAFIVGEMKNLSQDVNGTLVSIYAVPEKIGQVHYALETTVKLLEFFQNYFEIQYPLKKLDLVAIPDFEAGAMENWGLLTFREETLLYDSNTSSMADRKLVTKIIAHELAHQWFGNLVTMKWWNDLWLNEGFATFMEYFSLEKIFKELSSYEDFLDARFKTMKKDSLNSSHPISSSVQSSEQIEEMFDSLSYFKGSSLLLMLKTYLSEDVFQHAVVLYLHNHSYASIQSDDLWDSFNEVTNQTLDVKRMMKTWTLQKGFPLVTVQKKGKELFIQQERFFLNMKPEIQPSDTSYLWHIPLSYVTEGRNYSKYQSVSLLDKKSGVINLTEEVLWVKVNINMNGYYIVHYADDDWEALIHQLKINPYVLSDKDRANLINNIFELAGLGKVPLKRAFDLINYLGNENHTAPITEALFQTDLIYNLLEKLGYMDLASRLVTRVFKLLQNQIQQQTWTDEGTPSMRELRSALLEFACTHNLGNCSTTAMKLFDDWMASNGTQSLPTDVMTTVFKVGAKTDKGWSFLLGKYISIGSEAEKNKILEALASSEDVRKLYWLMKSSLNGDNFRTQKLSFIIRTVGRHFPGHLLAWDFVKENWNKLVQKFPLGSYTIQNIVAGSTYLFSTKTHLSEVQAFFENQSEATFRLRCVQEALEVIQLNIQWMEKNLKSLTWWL
structure (smiles),measurement,setting,value
"CCOC(=O)C1=C(NC(C)=O)Oc2cc(O)ccc2C1c1cccnc1 (stereo not drawn) [Compound 2, Ethyl 2-(acetylamino)-7-hydroxy-4-pyridin-3-yl-4H-chromene-3-carboxylate]",IC50,[1],790 nM
same,Ki,"[1]; calculated from IC50=Ki(1+[S]/Km), read-out: K1",480 nM
same,inhibition at 10 µM,[2]; 10 μM,9%
same,inhibition at 100 µM,[2]; 100 μM,3%
same,Spontaneous Alternation Score (%),[3]; [7],73.70 ± 3.14 %
same,spontaneous alternation scores compared to vehicle treated control rats,"[3]; 0.1 nmole, p<0.01",significantly enhanced spontaneous alternation scores
same,Spontaneous Alternation Score (%),[3]; [8],64.34 ± 2.49%
same,inhibition at 100 µM,[4],0%
same,Distance travelled (% control),[5]; [7],85.12 ± 12.99 % control
same,Distance travelled (% control),[5]; [8],90.16 ± 6.73 % control
same,"locomotor activity compared to vehicle, by crossing of infrared beams and total distance travelled",[5]; 0.1 and 1 nmol intracerebroventricularly,did not exhibit increased or decreased locomotor activity
same,% inhibition of the catalytic activity of the enzyme,[6],0%
